{"source": "patent US20080233187A1", "about": "“Method of Production of Fine-Crystalline Mixture Containing Non-Steroid Anti-Inflammatory Drug, Fine-Crystalline Mixture Obtainable by this Method and Solid Pharmaceutical Composition Containing this Mixture” (priority 2005, published 2008)", "key": {"[1]": {"experiment": "release rate of the active ingredient from capsules and tablets (European Pharmacopoeia, chapter 2.9.3.)", "assay_type": "physicochemical", "conditions": "tablets of recipe C2 composition with fine-crystalline mixture of the drug and microcrystalline cellulose, direct pressing (FIG. 5 and 6)", "method": "The release rate of the active ingredient from the capsules prepared by the process described above, and for comparison also from the tablets, was tested by the method of the European Pharmacopoeia for testing solid pharmaceutical forms (chapter 2.9.3.). The medium used was phosphate buffer having pH 7.2."}, "[2]": {"experiment": "most commonly represented sizes of crystals (photographs of the crystals)", "assay_type": "physicochemical", "description": "The auxiliary substance in the fine-crystalline mixtures was Avicel®."}, "[3]": {"conditions": "racemic mixture administered to a human; cited from earlier work"}}, "data": [{"smiles": "CS(=O)(=O)Nc1ccc([N+](=O)[O-])cc1Oc1ccccc1", "note": "[nimesulide, N-(4-nitro-2-phenoxyphenyl)-methanesulphonamide]", "values": [{"measurement": "release of the active ingredient from the tablet", "setting": "[1]", "value": "very fast release"}]}, {"smiles": "CN1C(C(=O)Nc2ccccn2)=C(O)c2ccccc2S1(=O)=O", "note": "[piroxicam, 4-hydroxy-2-methyl-3-[(2-pyridyl)aminocarbonyl]-2H-1,2-benzothiazin-1,1-dioxide]", "values": [{"measurement": "release of the active ingredient from the tablet", "setting": "[1]", "value": "very fast release"}]}, {"smiles": "CC(C)Cc1ccc([C@H](C)C(=O)O)cc1", "note": "[coarse-crystalline S(+)-ibuprofen, S(+)-2-(4-isobutylphenyl)-propionic acid]", "values": [{"measurement": "lengthwise size of the stick-form crystals", "setting": "[2]; starting material (photograph FIG. 7)", "value": "about 200 micrometers"}, {"measurement": "length of crystals", "setting": "[2]; starting material, no solvent", "value": 250, "unit": "μm"}, {"measurement": "width of crystals", "setting": "[2]; starting material, no solvent", "value": 65, "unit": "μm"}]}, {"smiles": "CC(C)Cc1ccc([C@@H](C)C(=O)O)cc1", "note": "[R(−)-ibuprofen, R(−)-2-(4-isobutylphenyl)-propionic acid]", "values": [{"measurement": "conversion of R(−)-enantiomer to the S(+) form", "setting": "[3]", "value": "50 to 60", "unit": "%"}]}]}
